Source: patent US20150031622A1, “RHOGEF12 IS A THERAPEUTIC TARGET FOR THE TREATMENT OF HEART FAILURE” (MAX-PLANCK-GESELLSCHAFT ZUR FÖRDERUNG DER WISSENSCHAFTEN …, priority 2012, published 2015)
Bridges are numbered along the chain shown (N, C = ends). Where no end group is shown, it is not given here.

Test system: neonatal rat ventricular myocytes (NRVM)
Test: qRT-PCR of hypertrophy-specific genes (ANP, β-MHC) in NRVM
Type: cell-based
Conditions: NRVM control cells
Description: Neonatal rat ventricular myocytes (NRVM) were isolated from 1-2 days old rat neonates using a kit from Worthington Biochemical Corporation (Lakewood, N.J., USA). After digestion, cells were pre-plated for 1 h to remove nonmyocytes, plated on cell culture dishes pre-coated with 1% gelatin (Sigma-Aldrich) and then cultured in Dulbecco's modified Eagle's medium (DMEM) with 10% fetal bovine serum. The following day, cells were cultured in serum-free DMEM medium containing 100 μM 5-bromo 2′-deoxy-uridine (BrdU; Sigma-Aldrich). NRVM were transfected with siRNAs (Qiagen, Chatsworth, Calif., USA or Sigma-Aldrich) using Lipofectamine RNAiMAX (Invitrogen, San Diego, Calif., USA) 3 h and 20 h after plating according to the manufacturer's instructions. […]
RNA was extracted from left ventricles with the RNA fibrosis tissue kit (Qiagen) and from NRVM or adult mouse cardiomyocytes with the RNeasy Mini kit (Qiagen) according to the manufacture's protocol. […] Reverse transcriptase (RT) reaction was performed using the QuantiTect Reverse Transcription kit (Qiagen). Quantitative RT-PCR was performed using the LightCycler 480 Probe Master or LightCycler 480 SYBR Green Master (Roche). […]
Primers for the analysis of RhoGEF expression were used as described previously^40. Data are in all cases presented after normalization to GAPDH, in some cases the relative change compared to basal conditions was calculated.

## endothelin-1 (CSCSSLMDKECVYFCHLDIIW; disulfide 1-15, 3-11; ends not checked; UniProt P05305 53-73, looked up) [ET-1, hypertrophic stimulus, GPCR agonist, purchased from Sigma-Aldrich]
  expression of hypertrophy-specific genes (ANP, β-MHC) after stimulus: increased gene expression
